Test results from patent US7858635B2 (priority 2005, dated 2010).

Columns and labels:
[1] = biological target: T1, M4 muscarinic receptor (Homo sapiens, UniProt P08173); test: Functional mobilization of intracellular calcium (FLIPR, Fluo-3), M4-CHO cells; format: cell-based; conditions: compound nos. 1-454; for Emax / M4 Efficacy: 100% efficacy is the maximum response obtained with the Carbachol control; for Emax: read-out: M4 Efficacy
T1 construct: expressed in transfected cells; host or cells: CHO cells (M4-CHO, under puromycin, zeocin and blasticidin selection)
T1 sequence (P08173 1-479): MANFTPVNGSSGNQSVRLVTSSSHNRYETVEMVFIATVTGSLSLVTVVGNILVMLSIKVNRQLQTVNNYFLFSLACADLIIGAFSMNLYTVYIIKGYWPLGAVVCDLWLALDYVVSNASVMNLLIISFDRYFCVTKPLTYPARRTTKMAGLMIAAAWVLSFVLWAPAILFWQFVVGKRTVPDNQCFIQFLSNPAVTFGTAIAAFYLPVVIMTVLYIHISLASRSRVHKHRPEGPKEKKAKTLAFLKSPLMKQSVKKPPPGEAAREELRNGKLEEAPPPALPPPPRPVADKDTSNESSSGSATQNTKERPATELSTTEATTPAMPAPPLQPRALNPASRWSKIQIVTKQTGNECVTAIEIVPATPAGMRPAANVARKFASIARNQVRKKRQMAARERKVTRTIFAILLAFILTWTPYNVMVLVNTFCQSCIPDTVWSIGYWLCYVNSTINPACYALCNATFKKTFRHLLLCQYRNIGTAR
Outline: (§1)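 CHO lines stably carrying the muscarinic subtype, dye-loaded with Fluo-3 at 37° C for 60-90 min, receive test compound in 0.5% DMSO. Agonist effects are read directly; antagonist effects against carbachol at EC80 after 15 min pre-incubation.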

[2] = biological target: T2, M1 muscarinic receptor (Homo sapiens, UniProt P11229); test: Functional mobilization of intracellular calcium (FLIPR, Fluo-3), M1-CHO cells; format: cell-based; conditions: compound nos. 1-454; for Emax: read-out: M1 Efficacy
T2 construct: expressed in transfected cells; host or cells: CHO cells (M1-CHO, under zeocin and G418 selection)
T2 sequence (P11229 1-460): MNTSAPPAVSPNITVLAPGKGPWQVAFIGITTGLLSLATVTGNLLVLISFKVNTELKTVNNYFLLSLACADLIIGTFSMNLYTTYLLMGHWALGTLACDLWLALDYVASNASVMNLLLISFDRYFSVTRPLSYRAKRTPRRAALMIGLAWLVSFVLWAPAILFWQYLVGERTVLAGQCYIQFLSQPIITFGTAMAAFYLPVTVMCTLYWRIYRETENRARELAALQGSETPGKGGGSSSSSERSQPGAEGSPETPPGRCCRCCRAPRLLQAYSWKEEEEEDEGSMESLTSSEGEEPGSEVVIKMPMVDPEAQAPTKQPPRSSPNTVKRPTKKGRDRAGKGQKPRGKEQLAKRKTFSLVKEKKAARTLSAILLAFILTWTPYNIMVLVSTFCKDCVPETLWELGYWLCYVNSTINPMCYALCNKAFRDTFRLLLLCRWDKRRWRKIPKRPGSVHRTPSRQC
Outline: as §1

[3] = 100% efficacy is the maximum response obtained with the Carbachol control

SMILES	M4 Activity [1]	Emax [1] [%]	M1 Activity [2]	Emax [2, 3] [%]	M4 Efficacy [1]	M1 Efficacy [2, 3]
Cc1ccc2c(c1)C1(CCN(CC3CC4CCC3C4)CC1)CN2C(=O)OC(C)(C)C (stereo not drawn) [compound 382]	+ (activity was measured to be greater than or equal to 4.0 μM)	55 to 70	+++ (activity was measured to be less than or equal to 0.7 μM)	65 to 85	–	–
COC(=O)N1C2CCC1CC(N1CCC3(CC1)CN(S(C)(=O)=O)c1ccc(F)cc13)C2 (stereo not drawn) [compound 383]	++ (activity was measured to be between 0.1 μM and 4.0 μM)	< 55	+++ (activity was measured to be less than or equal to 0.7 μM)	65 to 85	–	–
CCOC(=O)N1CCC(N2CCC3(CC2)CN(C(=O)c2ccccc2)c2ccc(F)cc23)CC1 [compound 384]	+ (activity was measured to be greater than or equal to 4.0 μM)	< 55	++ (activity was measured to be between 0.7 μM and 3.0 μM)	< 65	–	–
CC(=O)CN1CC2(CCN(C[C@@H]3C[C@H]4C=C[C@H]3C4)CC2)c2cc(F)ccc21 [compound 385]	+ (activity was measured to be greater than or equal to 4.0 μM)	< 55	++ (activity was measured to be between 0.7 μM and 3.0 μM)	65 to 85	–	–
CCCOC(=O)N1C2CCC1CC(N1CCC3(CC1)CN(C(=O)OC)c1ccc(F)cc13)C2 (stereo not drawn) [compound 386]	++ (activity was measured to be between 0.1 μM and 4.0 μM)	< 55	++ (activity was measured to be between 0.7 μM and 3.0 μM)	< 65	–	–
CC(=O)N1CC2(CCN(C3CCCCC3)CC2)c2cc(F)ccc21 [compound 387]	++ (activity was measured to be between 0.1 μM and 4.0 μM)	< 55	+++ (activity was measured to be less than or equal to 0.7 μM)	65 to 85	–	–
CS(=O)(=O)N1CC2(CCN(C3CC4CCC(C3)N4C(=O)O[C@H]3CCOC3)CC2)c2cc(F)ccc21 (stereo partly drawn) [compound 388]	+ (activity was measured to be greater than or equal to 4.0 μM)	< 55	+++ (activity was measured to be less than or equal to 0.7 μM)	65 to 85	–	–
CCCOC(=O)N1C2CCC1CC(N1CCC3(CC1)CN(C(=O)C1CC1)c1ccc(F)cc13)C2 (stereo not drawn) [compound 389]	+ (activity was measured to be greater than or equal to 4.0 μM)	< 55	++ (activity was measured to be between 0.7 μM and 3.0 μM)	65 to 85	–	–
CCOC(=O)N1C2CCC1CC(N1CCC3(CC1)CN(C(=O)C(C)C)c1ccc(F)cc13)C2 (stereo not drawn) [compound 390]	+ (activity was measured to be greater than or equal to 4.0 μM)	< 55	+++ (activity was measured to be less than or equal to 0.7 μM)	65 to 85	–	–
CCOC(=O)N1CCC(N2CCC3(CC2)CN(CCOC)c2ccc(F)cc23)CC1 [compound 391]	+ (activity was measured to be greater than or equal to 4.0 μM)	< 55	++ (activity was measured to be between 0.7 μM and 3.0 μM)	< 65	–	–
CC(=O)NC1CC2(CCN(C[C@H]3C[C@H]4C=C[C@H]3C4)CC2)c2ccccc21 (stereo partly drawn) [compound 392]	+ (activity was measured to be greater than or equal to 4.0 μM)	–	+++ (activity was measured to be less than or equal to 0.7 μM)	–	+ (efficacy was calculated to be 55% or less)	–
CC(=O)N1CC2(CCN(CC3CCCCC3)CC2)c2cc(F)ccc21 [compound 393]	+ (activity was measured to be greater than or equal to 4.0 μM)	< 55	+++ (activity was measured to be less than or equal to 0.7 μM)	65 to 85	–	–
CC(=O)N1CC2(CCN(C3CCN(C(=O)OCCF)C3)CC2)c2cc(F)ccc21 (stereo not drawn) [compound 394]	++ (activity was measured to be between 0.1 μM and 4.0 μM)	< 55	+++ (activity was measured to be less than or equal to 0.7 μM)	< 65	–	–
CC(=O)N1CC2(CCN(C3CCCN(C(=O)OC(C)C)CC3)CC2)c2cc(F)ccc21 (stereo not drawn) [compound 395]	+ (activity was measured to be greater than or equal to 4.0 μM)	< 55	+++ (activity was measured to be less than or equal to 0.7 μM)	< 65	–	–
Cc1ccc2c(c1)C1(CCN(C3CC4CCC(C4)C3)CC1)CN2 (stereo not drawn) [compound 397]	+ (activity was measured to be greater than or equal to 4.0 μM)	< 55	++ (activity was measured to be between 0.7 μM and 3.0 μM)	65 to 85	–	–
CC(=O)N1CC2(CCN(C3CCN(C(=O)O[C@H]4CCOC4)CC3)CC2)c2cc(C)ccc21 [compound 398]	+ (activity was measured to be greater than or equal to 4.0 μM)	< 55	++ (activity was measured to be between 0.7 μM and 3.0 μM)	< 65	–	–
CC(=O)N[C@H]1CC2(CCN(CC3CCN(C(=O)OC(C)C)CC3)CC2)c2ccccc21 [compound 399]	++ (activity was measured to be between 0.1 μM and 4.0 μM)	< 55	++ (activity was measured to be between 0.7 μM and 3.0 μM)	65 to 85	–	–
CCNC(=O)N1CC2(CCN(C3CC4CCC3C4)CC2)c2cc(C)ccc21 (stereo not drawn) [compound 400]	+ (activity was measured to be greater than or equal to 4.0 μM)	< 55	+ (activity was measured to be greater than or equal to 3.0 μM)	< 65	–	–
CCOC(=O)N1CCC(N2CCC3(CC2)CN(C(=O)c2ccc4c(c2)OCO4)c2ccc(F)cc23)CC1 [compound 401]	+ (activity was measured to be greater than or equal to 4.0 μM)	< 55	+++ (activity was measured to be less than or equal to 0.7 μM)	65 to 85	–	–
CC(C)OC(=O)N1C2CCC1CC(N1CCC3(CC1)CN(C(=O)O[C@@H]1CCOC1)c1ccc(F)cc13)C2 (stereo partly drawn) [compound 402]	+ (activity was measured to be greater than or equal to 4.0 μM)	–	++ (activity was measured to be between 0.7 μM and 3.0 μM)	–	+ (efficacy was calculated to be 55% or less)	++ (efficacy was calculated to be between 85% and 65%)
CC(=O)N1CC2(CCN(CC3CCN(C(=O)O[C@@H]4CCOC4)CC3)CC2)c2cc(C)ccc21 [compound 403]	+ (activity was measured to be greater than or equal to 4.0 μM)	< 55	+++ (activity was measured to be less than or equal to 0.7 μM)	65 to 85	–	–
CC(=O)N1CC2(CCN(CC3CCN(C(=O)OC(C)C)CC3)CC2)c2cc(C)ccc21 [compound 404]	+ (activity was measured to be greater than or equal to 4.0 μM)	< 55	++ (activity was measured to be between 0.7 μM and 3.0 μM)	< 65	–	–
CCCOC(=O)N1C2CCC1CC(N1CCC3(CC1)CN(C(=O)OCCOC)c1ccc(F)cc13)C2 (stereo not drawn) [compound 405]	+ (activity was measured to be greater than or equal to 4.0 μM)	< 55	++ (activity was measured to be between 0.7 μM and 3.0 μM)	< 65	–	–
C/C=C\c1ccc2c(c1)C1(CCN(C3CCN(C(=O)OCC)CC3)CC1)CN2C(C)=O [compound 407]	+ (activity was measured to be greater than or equal to 4.0 μM)	< 55	++ (activity was measured to be between 0.7 μM and 3.0 μM)	< 65	–	–
CC(=O)NC1CC2(CCN(C[C@@H]3C[C@H]4C=C[C@H]3C4)CC2)c2ccccc21 (stereo partly drawn) [compound 408]	+++ (activity was measured to be less than or equal to 0.1 μM)	55 to 70	+++ (activity was measured to be less than or equal to 0.7 μM)	65 to 85	–	–
